Measured values from paper PMC10216478, “Development of a Non-Peptide Angiotensin II Type 1 Receptor Ligand by Structural Modification of Olmesartan as a Biased Agonist” (Biomedicines, 2023).
Substitutions are numbered along the chain they refer to.

Assays:
AT1 wild-type receptor = target: T1, AT1 wild-type receptor (Rattus norvegicus, UniProt P25095); assay: IP production assay in COS7 cells expressing AT1 wild-type receptor; format: cell-based; conditions: for Effect on IP production: AT1 wild-type receptor, COS7 cells, 1 µM ligands or 0.1 µM Ang II, 30 min, n = 5, vs. (-); for Mode of action with regard to IP production: authors' classification from IP production at AT1 wild-type receptor
T1 construct: expressed in transfected cells; host or cells: COS7
T1 sequence (P25095 1-359): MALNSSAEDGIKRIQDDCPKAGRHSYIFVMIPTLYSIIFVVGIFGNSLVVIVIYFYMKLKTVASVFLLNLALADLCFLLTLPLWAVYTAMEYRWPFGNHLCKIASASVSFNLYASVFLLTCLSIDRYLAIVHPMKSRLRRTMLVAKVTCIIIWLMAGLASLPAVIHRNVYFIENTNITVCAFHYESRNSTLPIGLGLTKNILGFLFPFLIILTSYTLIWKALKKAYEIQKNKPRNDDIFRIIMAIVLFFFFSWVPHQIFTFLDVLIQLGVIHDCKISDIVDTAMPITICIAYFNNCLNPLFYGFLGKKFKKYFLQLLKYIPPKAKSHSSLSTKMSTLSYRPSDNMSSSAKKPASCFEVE
Protocol: (§1) The synthetic rat AT1 receptor gene, which was cloned in the shuttle expression vector pMT-2, was used for expression and mutagenesis, as described previously. […] In the experiments, cells were grown without a cell-growth supplement. To express the AT1 receptor protein, 10 µg of purified plasmid DNA per 10^7 cells was used in the transfection. Wild-type and mutated AT1 receptors were transiently transfected into cells using Lipofectamine 2000 liposomal reagent (Roche Applied Science, Penzberg, Germany). Cells were plated and grown and were 70–90% confluent at the time of transfection. We incubated plasmid DNA (10 µg)–lipid (10 µL) complexes for 5 min at room temperature and added and incubated the complexes with cells for 24 h. We then analyzed the parameters in transfected cells. […] Transfected cells that had been cultured for 48–72 h were harvested. Cell membranes were prepared using the nitrogen Parr bomb disruption or freeze–thaw methods.
(§2) Ligand (such as agonist or antagonist)-induced IP production through the AT1 receptor in transfected COS7 cells transiently expressing the AT1 receptor was measured to evaluate cell signaling as a second messenger for controlling blood pressure, since the increases in the intracellular Ca^2+ concentration were the result of IP accumulation, which indicated vasoconstriction. As a surrogate model with higher levels of AT1 receptor expression, COS7 cells are suitable for IP measurement because it is easy to detect differences in IP production. Cells were labeled for 24 h with [^3H]-myoinositol at 37 °C in DMEM containing 10% FBS. Next, the cells were washed with buffer 3 times and incubated with a medium containing 10 mM LiCl for 20 min; 0.1 µM Ang II or 1 µM ligands were added and incubation was continued for another 30 min at 37 °C. After incubation, the medium was removed, and total soluble IP was extracted from the cells using the perchloric acid extraction method, as described previously. Cells were plated at a field density of 5 × 10^3 cells/cm^2 in 60 mm dishes and cultured in a fresh growth medium at 37 °C in a DMEM 5% CO2 incubator. […] The culture medium was changed 48 h after transfection and 1.5 mL of 1 μCi/mL of [^3H]-myoinositol was added to each 60-mm dish at 37 °C in DMEM containing 10% FBS. After labeling, the cells were washed with buffer 3 times and incubated with a medium containing 10 mM LiCl for 20 min. The indicated concentration of ligands was added and incubation was continued for an additional 30 min at 37 °C. After incubation, the medium was removed, and total soluble IP was extracted from the cells using the perchloric acid extraction method. Total IP production was expressed as the sum of radioactivity, as described previously.

AT1 L112A receptor = target: T2, AT1 L112A receptor (Rattus norvegicus, UniProt P25095, L112A); assay: IP production assay in COS7 cells expressing AT1-L112A receptor; format: cell-based; conditions: 1 µM ligands or 0.1 µM Ang II, 30 min, n = 5, vs. (-)
T2 construct: expressed in transfected cells; host or cells: COS7
T2 sequence (P25095 1-359 L112A): T1 sequence (P25095 1-359) with L112A
Protocol: as §1, §2

| Effect on IP production (AT1 wild-type receptor) | Mode of action with regard to IP production (AT1 wild-type receptor) | SMILES | Effect on IP production (AT1 L112A receptor) |
| --- | --- | --- | --- |
| did not change IP production | neutral antagonist | CCCc1nc(C(C)(C)O)c(C(N)=O)n1Cc1ccc(-c2ccccc2-c2nnn[nH]2)cc1 [R239470] | none of the compounds (R239470, R781253, and R794847) affected IP production |
| significantly decreased | inverse agonist | CCCc1nc(C(C)(C)O)c(C(=O)O)n1Cc1ccc(-c2cc(Cc3ccc(O)cc3)ccc2-c2nnn[nH]2)cc1 [R781253] | none of the compounds (R239470, R781253, and R794847) affected IP production |
| increased IP production | agonist | CCCc1nc(C(C)(C)O)c(C(N)=O)n1Cc1ccc(-c2cc(Cc3ccc(O)cc3)ccc2-c2nnn[nH]2)cc1 [R794847] | none of the compounds (R239470, R781253, and R794847) affected IP production |

| SMILES | Effect on IP production (AT1 wild-type receptor) | Mode of action with regard to IP production (AT1 wild-type receptor) | Effect on IP production (AT1 L112A receptor) |
| --- | --- | --- | --- |
| CCCc1nc(C(C)(C)O)c(C(=O)O)n1Cc1ccc(-c2ccccc2-c2nnn[nH]2)cc1 [Olmesartan, olmesartan] | significant reduction in basal IP production levels | inverse agonism | significant reduction in basal IP production levels |
